Measurements taken from ChEMBL document CHEMBL1275354, “Anticonvulsant activity of 2,4(1H)-diarylimidazoles in mice and rats acute seizure models” (Bioorg Med Chem, 2010).
Calls of active or inactive are those of the source.

Assays:
Mus musculus [1] = assay: Anticonvulsant activity in albino CF1 mouse assessed as protection against subcutaneous metrazole-induced seizures at 300 mg/kg, ip after 4 hrs; assay type: functional, organism-based; design: dose 300 mg/kg
Mus musculus [2] = assay: Anticonvulsant activity ip dosed albino CF1 mouse assessed as protection against maximal electroshock-induced seizures after 0.25 hrs; assay type: functional
Mus musculus [3] = assay: Neurotoxicity in ip dosed albino CF1 mouse assessed as minimum dose required to cause toxicity after 4 hrs by rotarod test; assay type: organism-based; conditions: in vivo
Mus musculus [4] = assay: Neurotoxicity in albino CF1 mouse assessed as minimal motor impairment at 30 to 300 mg/kg, po after 4 hrs by rotarod test; assay type: toxicity, organism-based; design: dose 30-300 mg/kg, route oral; conditions: in vivo
Mus musculus [5] = assay: Anticonvulsant activity in albino CF1 mouse assessed as protection against subcutaneous metrazole-induced seizures at 30 mg/kg, ip after 4 hrs; assay type: functional, organism-based; design: dose 30 mg/kg
Mus musculus [6] = assay: Anticonvulsant activity in albino CF1 mouse assessed as protection against subcutaneous metrazole-induced seizures at 30 mg/kg, ip after 0.5 hrs; assay type: functional, organism-based; design: dose 30 mg/kg
Mus musculus [7] = assay: Neurotoxicity in albino CF1 mouse assessed as minimal motor impairment at 100 mg/kg, ip after 0.5 hrs by rotarod test; assay type: toxicity, organism-based; design: dose 100 mg/kg, route intraperitoneal; conditions: in vivo
Mus musculus [8] = assay: Anticonvulsant activity in albino CF1 mouse assessed as protection against maximal electroshock-induced seizures at 300 mg/kg, ip after 0.5 hrs; assay type: functional, organism-based; design: dose 300 mg/kg
Mus musculus [9] = assay: Neurotoxicity in albino CF1 mouse assessed as minimal motor impairment at 30 mg/kg, ip after 0.5 hrs by rotarod test; assay type: toxicity, organism-based; design: dose 30 mg/kg, route intraperitoneal; conditions: in vivo
Mus musculus [10] = assay: Anticonvulsant activity in albino CF1 mouse assessed as protection against subcutaneous metrazole-induced seizures at 100 mg/kg, ip after 4 hrs; assay type: functional, organism-based; design: dose 100 mg/kg
Rattus norvegicus [11] = assay: Anticonvulsant activity in albino Sprague-Dawley rat assessed as protection against maximal electroshock-induced seizures at 30 mg/kg, po after 0.25 hrs; assay type: functional, organism-based; design: dose 30 mg/kg
Mus musculus [12] = assay: Anticonvulsant activity in albino CF1 mouse assessed as protection against subcutaneous metrazole-induced seizures at 300 mg/kg, ip after 0.5 hrs; assay type: functional, organism-based; design: dose 300 mg/kg
[13] = target: Sodium channel protein type 2 subunit alpha (Homo sapiens, UniProt Q99250); assay: Inhibition of human NaV1.2 expressed in HEK cells at -60 mV holding potential by patch clamp recording technique; assay type: cell-based, HEK293
Mus musculus [14] = assay: Neurotoxicity in albino CF1 mouse assessed as minimal motor impairment at 70 mg/kg, ip after 0.25 hrs by rotarod test; assay type: toxicity, organism-based; design: dose 70 mg/kg, route intraperitoneal; conditions: in vivo
Mus musculus [15] = assay: Anticonvulsant activity in albino CF1 mouse assessed as protection against maximal electroshock-induced seizures at 35 mg/kg, ip after 0.25 hrs; assay type: functional, organism-based; design: dose 35 mg/kg
Mus musculus [16] = organism: Mus musculus; assay: Protective index, ratio of TD50 for albino CF1 mouse by rotarod test to ED50 for albino CF1 mouse by maximal electroshock seizures test; assay type: functional
Mus musculus [17] = assay: Anticonvulsant activity in albino CF1 mouse assessed as protection against maximal electroshock-induced seizures at 30 mg/kg, ip after 0.5 hrs; assay type: functional, organism-based; design: dose 30 mg/kg
Mus musculus [18] = assay: Anticonvulsant activity in albino CF1 mouse assessed as protection against maximal electroshock-induced seizures at 100 mg/kg, ip after 0.5 hrs; assay type: functional, organism-based; design: dose 100 mg/kg
Mus musculus [19] = assay: Protective index, ratio of TD50 for albino CF1 mouse by rotarod test to ED50 for albino CF1 mouse by subcutaneous metrazol seizures test; assay type: functional
Mus musculus [20] = assay: Anticonvulsant activity against maximal electroshock-induced seizures in ip dosed albino CF1 mouse assessed as minimum effective dose after 4 hrs; assay type: functional; conditions: read-out: MED
Mus musculus [21] = assay: Anticonvulsant activity in albino CF1 mouse assessed as protection against maximal electroshock-induced seizures at 30 mg/kg, ip after 4 hrs; assay type: functional, organism-based; design: dose 30 mg/kg
Mus musculus [22] = assay: Neurotoxicity in albino CF1 mouse assessed as minimal motor impairment at 300 mg/kg, ip after 0.5 hrs by rotarod test; assay type: toxicity, organism-based; design: dose 300 mg/kg, route intraperitoneal; conditions: in vivo
Mus musculus [23] = assay: Neurotoxicity in albino CF1 mouse assessed as minimal motor impairment at 350 mg/kg, ip after 0.25 hrs by rotarod test; assay type: toxicity, organism-based; design: dose 350 mg/kg, route intraperitoneal; conditions: in vivo
Mus musculus [24] = assay: Anticonvulsant activity in albino CF1 mouse assessed as protection against maximal electroshock-induced seizures at 70 mg/kg, ip after 0.25 hrs; assay type: functional, organism-based; design: dose 70 mg/kg
Rattus norvegicus [25] = assay: Anticonvulsant activity in albino Sprague-Dawley rat assessed as protection against maximal electroshock-induced seizures at 30 mg/kg, po after 0.5 hrs; assay type: functional, organism-based; design: dose 30 mg/kg
Mus musculus [26] = assay: Neurotoxicity in albino CF1 mouse assessed as minimal motor impairment at 30 mg/kg, ip after 4 hrs by rotarod test; assay type: toxicity, organism-based; design: dose 30 mg/kg, route intraperitoneal; conditions: in vivo
Mus musculus [27] = assay: Anticonvulsant activity ip dosed albino CF1 mouse assessed as protection against subcutaneous metrazole-induced seizures after 0.25 hrs; assay type: functional; conditions: albino CF1, 0.25 h
Mus musculus [28] = assay: Anticonvulsant activity in albino CF1 mouse assessed as protection against maximal electroshock-induced seizures at 300 mg/kg, ip after 4 hrs; assay type: functional, organism-based; design: dose 300 mg/kg
Mus musculus [29] = assay: Anticonvulsant activity in albino CF1 mouse assessed as protection against subcutaneous metrazole-induced seizures at 100 mg/kg, ip after 0.5 hrs; assay type: functional, organism-based; design: dose 100 mg/kg
Mus musculus [30] = assay: Anticonvulsant activity against maximal electroshock-induced seizures in ip dosed albino CF1 mouse assessed as minimum effective dose after 0.5 hrs; assay type: functional; conditions: read-out: MED
Mus musculus [31] = assay: Neurotoxicity in albino CF1 mouse assessed as minimal motor impairment at 100 mg/kg, ip after 4 hrs by rotarod test; assay type: toxicity, organism-based; design: dose 100 mg/kg, route intraperitoneal; conditions: in vivo
Mus musculus [32] = assay: Neurotoxicity in albino CF1 mouse assessed as minimal motor impairment at 30 to 300 mg/kg, ip after 0.5 hrs by rotarod test; conditions: in vivo
Mus musculus [33] = assay: Neurotoxicity in ip dosed albino CF1 mouse assessed as minimal motor impairment after 0.25 hrs by rotarod test; assay type: toxicity, organism-based; conditions: in vivo
Mus musculus [34] = assay: Neurotoxicity in albino CF1 mouse assessed as minimal motor impairment at 300 mg/kg, ip after 4 hrs by rotarod test; assay type: toxicity, organism-based; design: dose 300 mg/kg, route intraperitoneal; conditions: in vivo
Mus musculus [35] = assay: Anticonvulsant activity against subcutaneous metrazole-induced seizures in ip dosed albino CF1 mouse assessed as minimum effective dose after 0.5 hrs; assay type: functional; conditions: albino CF1, 0.5 h, read-out: MED
Rattus norvegicus [36] = assay: Neurotoxicity in albino Sprague-Dawley rat assessed as minimal motor impairment at 30 mg/kg, po by rotarod test; assay type: toxicity, organism-based; design: dose 30 mg/kg, route oral; conditions: in vivo
Rattus norvegicus [37] = assay: Anticonvulsant activity in albino Sprague-Dawley rat assessed as protection against maximal electroshock-induced seizures at 30 mg/kg, po after 4 hrs; assay type: functional, organism-based; design: dose 30 mg/kg
Mus musculus [38] = assay: Anticonvulsant activity in albino CF1 mouse assessed as protection against subcutaneous metrazole-induced seizures at 70 mg/kg, ip after 0.25 hrs; assay type: functional, organism-based; design: dose 70 mg/kg
Mus musculus [39] = assay: Neurotoxicity in ip dosed albino CF1 mouse assessed as minimum dose required to cause toxicity after 0.5 hrs by rotarod test; assay type: organism-based; conditions: in vivo
Mus musculus [40] = assay: Anticonvulsant activity against subcutaneous metrazole-induced seizures in ip dosed albino CF1 mouse assessed as minimum effective dose after 4 hrs; assay type: functional; conditions: albino CF1, 4 h, read-out: MED
Rattus norvegicus [41] = assay: Anticonvulsant activity in albino Sprague-Dawley rat assessed as protection against maximal electroshock-induced seizures at 30 mg/kg, po after 2 hrs; assay type: functional, organism-based; design: dose 30 mg/kg

Chain of Sodium channel protein type 2 subunit alpha (Q99250 whole entry): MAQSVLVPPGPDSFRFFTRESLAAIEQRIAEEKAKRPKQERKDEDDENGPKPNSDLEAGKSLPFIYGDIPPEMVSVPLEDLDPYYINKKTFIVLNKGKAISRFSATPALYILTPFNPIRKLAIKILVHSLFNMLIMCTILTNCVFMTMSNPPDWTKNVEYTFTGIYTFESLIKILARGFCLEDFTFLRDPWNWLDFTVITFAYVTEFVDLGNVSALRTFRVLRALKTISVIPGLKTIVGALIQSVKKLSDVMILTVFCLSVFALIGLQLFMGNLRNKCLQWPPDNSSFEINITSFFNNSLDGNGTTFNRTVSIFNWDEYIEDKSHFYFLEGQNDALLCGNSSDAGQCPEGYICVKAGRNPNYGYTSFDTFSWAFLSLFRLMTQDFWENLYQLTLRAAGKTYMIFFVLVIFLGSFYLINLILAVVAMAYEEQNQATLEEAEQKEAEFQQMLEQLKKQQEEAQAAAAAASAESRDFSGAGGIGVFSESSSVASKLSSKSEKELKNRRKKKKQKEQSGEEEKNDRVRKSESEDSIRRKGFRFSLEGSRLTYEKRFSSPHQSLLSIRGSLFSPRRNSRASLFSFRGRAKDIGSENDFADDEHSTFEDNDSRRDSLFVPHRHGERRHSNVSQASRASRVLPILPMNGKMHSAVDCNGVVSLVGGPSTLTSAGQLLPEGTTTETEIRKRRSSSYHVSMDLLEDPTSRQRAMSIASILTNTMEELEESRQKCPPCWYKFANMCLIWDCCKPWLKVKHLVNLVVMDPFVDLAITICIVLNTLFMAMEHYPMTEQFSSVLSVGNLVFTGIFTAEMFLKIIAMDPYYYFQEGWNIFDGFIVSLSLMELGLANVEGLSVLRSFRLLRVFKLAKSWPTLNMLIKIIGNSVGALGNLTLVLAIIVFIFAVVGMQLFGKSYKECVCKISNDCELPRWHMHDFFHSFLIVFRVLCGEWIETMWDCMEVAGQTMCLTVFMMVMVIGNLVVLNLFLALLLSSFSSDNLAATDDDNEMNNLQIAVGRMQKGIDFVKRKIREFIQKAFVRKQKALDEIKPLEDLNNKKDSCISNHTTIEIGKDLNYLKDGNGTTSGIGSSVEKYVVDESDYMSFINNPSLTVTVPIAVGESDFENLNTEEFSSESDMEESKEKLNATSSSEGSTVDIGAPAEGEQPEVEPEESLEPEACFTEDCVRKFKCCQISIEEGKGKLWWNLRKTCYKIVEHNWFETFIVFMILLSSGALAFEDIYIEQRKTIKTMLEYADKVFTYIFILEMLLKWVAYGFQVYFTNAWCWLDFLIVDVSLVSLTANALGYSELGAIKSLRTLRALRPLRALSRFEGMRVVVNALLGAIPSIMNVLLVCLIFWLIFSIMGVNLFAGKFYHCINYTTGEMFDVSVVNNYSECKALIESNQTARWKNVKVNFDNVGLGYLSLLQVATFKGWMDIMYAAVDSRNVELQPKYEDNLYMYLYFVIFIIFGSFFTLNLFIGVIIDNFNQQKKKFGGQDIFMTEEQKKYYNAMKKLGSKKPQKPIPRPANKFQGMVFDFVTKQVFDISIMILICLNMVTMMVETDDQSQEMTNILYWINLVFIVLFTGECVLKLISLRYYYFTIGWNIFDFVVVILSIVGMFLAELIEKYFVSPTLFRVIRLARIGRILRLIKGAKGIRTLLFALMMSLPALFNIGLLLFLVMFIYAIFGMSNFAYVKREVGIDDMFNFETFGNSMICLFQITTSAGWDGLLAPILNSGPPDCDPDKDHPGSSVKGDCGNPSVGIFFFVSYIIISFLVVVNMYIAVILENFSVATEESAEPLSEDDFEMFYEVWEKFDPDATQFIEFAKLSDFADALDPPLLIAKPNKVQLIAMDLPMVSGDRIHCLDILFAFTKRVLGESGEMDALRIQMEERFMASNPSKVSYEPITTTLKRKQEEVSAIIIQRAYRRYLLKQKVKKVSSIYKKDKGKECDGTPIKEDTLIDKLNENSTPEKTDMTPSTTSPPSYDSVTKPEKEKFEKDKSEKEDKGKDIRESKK

COc1ccc(-c2nc(-c3ccccc3)c[nH]2)cc1
200.8 mg/kg: TD50 (Mus musculus [33])
> 30 mg/kg: minimal effective dose (Mus musculus [30])
Non-toxic: Activity (Mus musculus [4]) | Activity (Mus musculus [7]) | Activity (Mus musculus [9]) | Activity (Mus musculus [14]) | Activity (Mus musculus [26]) | Activity (Mus musculus [31]) | Activity (Mus musculus [32]) | Activity (Rattus norvegicus [36])
inactive: Activity (Mus musculus [1]) | Activity (Mus musculus [5]) | Activity (Mus musculus [6]) | Activity (Mus musculus [10]) | Activity (Rattus norvegicus [11]) | Activity (Mus musculus [15]) | Activity (Mus musculus [17]) | Activity (Mus musculus [21]) | Activity (Rattus norvegicus [25]) | Activity (Mus musculus [29]) | Activity (Rattus norvegicus [37]) | Activity (Mus musculus [38]) | Activity (Rattus norvegicus [41])
Toxic: Activity (Mus musculus [22]) | Activity (Mus musculus [23]) | Activity (Mus musculus [34])
1.4: PI (Mus musculus [19])
100 mg/kg: MED (Mus musculus [3]) | minimal effective dose (Mus musculus [20]) | minimal effective dose (Mus musculus [35]) | MED (Mus musculus [39])
active: Activity (Mus musculus [8]) | Activity (Mus musculus [12]) | Activity (Mus musculus [18]) | Activity (Mus musculus [24]) | Activity (Mus musculus [28])
4.3: PI (Mus musculus [16])
> 300 mg/kg: minimal effective dose (Mus musculus [40])
142 mg/kg: ED50 (Mus musculus [27])
46.8 mg/kg: ED50 (Mus musculus [2])
21.4 µM: IC50 [13]
